Assay results: PubChem BioAssay AID1996
≈ marks a conversion by molar mass, not a printed value.

Conditions: buffer; pH 7.4; 200.0 µM

Point of comparison: `COc1ccc2oc3c(c2c1)NC(=O)CN=C3c1ccccc1`, solubility kinetic 3.1 µg/mL (≈ 10.1 µM). Against it:
- Fc1ccc(NC(=S)NCCN2CCOCC2)c(F)c1F — higher, > 47.9 µg/mL
- O=C(N/N=C/c1ccc([N+](=O)[O-])o1)C1CCCC1 — higher, > 37.7 µg/mL
- O=C(COC(=O)C1CCN(S(=O)(=O)c2cccs2)CC1)Nc1ccc(F)cc1Cl — 5.7-fold higher, 17.7 µg/mL (≈ 38.4 µM)
- CNc1cc(C)c(C#N)c2nc3ccccc3n12 — within 1.5-fold, 2.6 µg/mL (≈ 11 µM)
- O=C(c1cccnc1Cl)N(Cc1ccccc1)Cc1ccccc1 — 13-fold higher, 39.5 µg/mL (≈ 117 µM)
- COC(=O)Cn1ncc(N(C)Cc2ccccc2)c(Cl)c1=O — higher, > 48.3 µg/mL
- O=c1[nH]c(SCCN2CCOCC2)nc(O)c1-c1ccccc1 — 14-fold higher, 44.2 µg/mL (≈ 133 µM)
- O=C(NCCCN1CCOCC1)C(=O)NCc1ccccc1 — higher, > 45.8 µg/mL
- O=C(COc1ccccc1[N+](=O)[O-])OCC(=O)c1ccc(Br)s1 — 19-fold higher, 59.9 µg/mL (≈ 150 µM)
- COc1ccc(CNc2cccc(C)n2)c(O)c1 — 9-fold higher, 28 µg/mL (≈ 115 µM)
- NC(=O)c1cc([N+](=O)[O-])ccc1NCCc1ccccc1 — lower, < 0.2 µg/mL
- CCOC(=O)c1ccc(NC(=S)NC(=O)C2CCCC2)cc1 — lower, < 0.3 µg/mL
- Cc1ccc(C(O)c2nc3ccccc3n2C)cc1 (stereo not given) — higher, > 37.8 µg/mL
- Cc1ccc(C(=O)O)cc1NC(=O)C1CCN(S(=O)(=O)c2ccc3c(c2)OCCO3)CC1 — higher, > 69.1 µg/mL
- O=C(CCc1ccc(S(=O)(=O)N2CCOCC2)cc1)OCC(=O)c1ccc(Br)cc1 — 2.2-fold higher, 6.7 µg/mL (≈ 13.5 µM)
- O=C(CN1C(=O)NC2(CCCCCC2)C1=O)c1ccc(F)cc1 — higher, > 47.8 µg/mL
- COc1ccc2[nH]c(C(=O)N(C)c3ccc(F)cc3F)cc2c1 — lower, < 0.3 µg/mL
- Cc1cc(C)n2nc(SCC(=O)N3CCC(C)CC3)nc2n1 — higher, > 47.9 µg/mL
- Cc1ccc(C(=O)NCCCNC(=O)Cc2ccccc2)cn1 — higher, > 46.7 µg/mL
- CCC(C)NC(=O)c1cc(-c2cccs2)nc2ccccc12 (stereo not given) — within 1.5-fold, 2.4 µg/mL (≈ 7.73 µM)
- COCCN(C(=O)c1ccco1)c1nc(-c2ccccc2)cs1 — 1.8-fold higher, 5.7 µg/mL (≈ 17.4 µM)
- CCC(NC(=O)Nc1cc(C)on1)(C(F)(F)F)C(F)(F)F — 4.7-fold higher, 14.6 µg/mL (≈ 45.7 µM)
- Cc1ccc(NC(=O)CCC(=O)c2cccs2)c(O)c1 — 7.8-fold higher, 24.2 µg/mL (≈ 83.6 µM)
- CCOc1ccc(S(=O)(=O)Nc2ccc(C(=O)NCC(c3ccc(OC)cc3)N3CCOCC3)cc2)cc1 (stereo not given) — 12-fold higher, 37.9 µg/mL (≈ 70.2 µM)
- CN(Cc1ccccc1)S(=O)(=O)c1cn(C)cn1 — higher, > 39.8 µg/mL
- Oc1ccccc1-c1nc(NCc2cccnc2)c2ccccc2n1 — lower, < 0.2 µg/mL
- N#Cc1c(-c2ccccc2)nc(N2CCN(Cc3ccccc3)CC2)[nH]c1=O — higher, > 55.7 µg/mL
- CC1Oc2ccccc2OC1C(=O)Nc1nccs1 (stereo not given) — 5.8-fold higher, 18.1 µg/mL (≈ 65.5 µM)
- CC1CN(CCCCSc2ccccc2)CC(C)O1.Cl (stereo not given) — 13-fold higher, 41.8 µg/mL
- Cc1cccc(CN2CCN(c3ccc(Cl)cc3)CC2)c1 — 1.6-fold lower, 2 µg/mL (≈ 6.65 µM)
- Cc1cc(C(=O)N/N=C/c2cn(C)nc2C)c2ccccc2n1 — higher, > 46.1 µg/mL
- N#Cc1nc(-c2ccc(F)cc2)oc1NCCCn1ccnc1 — within 1.5-fold, 2.5 µg/mL (≈ 8.03 µM)
- O=C(Nc1ccc(F)cc1)Nc1cnccn1 — 9-fold higher, 27.9 µg/mL (≈ 120 µM)
- S=c1[nH]c2cnccc2n1Cc1ccccc1 — 1.8-fold higher, 5.7 µg/mL (≈ 23.6 µM)
- Cc1ccc(OC(C)C(=O)Nc2ccncc2)cc1C (stereo not given) — 11-fold higher, 34 µg/mL (≈ 126 µM)
- Cc1ccc2oc(C(=O)N3CCCCCC3)c(C)c2c1 — 5.4-fold higher, 16.6 µg/mL (≈ 61.2 µM)
- O=C(NCc1ccc(Cl)cc1)c1ccc2ccccc2n1 — within 1.5-fold, 3.4 µg/mL (≈ 11.5 µM)
- O=C(CCSCc1ccccc1F)NCc1cccnc1 — higher, > 45.7 µg/mL
- C(#Cc1ccccc1)CN1CCCCC1.Cl — 8.3-fold higher, 25.6 µg/mL
- COc1cc(CNCc2ccncc2)cc(OC)c1OC.Cl — higher, > 48.7 µg/mL
- CC(C)(C)N1CC(C(=O)O)CC1=O (stereo not given) — higher, > 27.8 µg/mL
- CCN(CC)S(=O)(=O)c1ccc(OC)c(NC(=O)CSCc2c(C)noc2C)c1 — higher, > 66.2 µg/mL
- CCc1cc(C(=O)NCC2CCCO2)sc1C (stereo not given) — higher, > 38 µg/mL
- Cc1c(N=Cc2cc3c(cc2[N+](=O)[O-])OCO3)cccc1[N+](=O)[O-] — 2.1-fold higher, 6.5 µg/mL (≈ 19.7 µM)
- Nc1ncc([N+](=O)[O-])c(Oc2ccccc2F)n1 — higher, > 37.5 µg/mL
- COc1ccc(CCNC2CCc3ccccc3C2)cc1 (stereo not given) — 9.1-fold higher, 28.3 µg/mL (≈ 101 µM)
- N/C(Cc1nc(-c2ccc(Cl)cc2)cs1)=N/O — 10-fold higher, 32.3 µg/mL (≈ 121 µM)
- O=C(CN1C(=O)NC2(CCCCCC2)C1=O)Nc1ccc([N+](=O)[O-])cc1 — 4.3-fold higher, 13.3 µg/mL (≈ 36.9 µM)
- Cl.O=C(NC12CC3CC(CC(C3)C1)C2)OC1CN2CCC1CC2 (stereo not given) — 15-fold higher, 47.7 µg/mL
- CCC(=O)Nc1cc(C(=O)O)ccc1Sc1ccc(C)cc1 — 13-fold higher, 38.8 µg/mL (≈ 123 µM)
- COCCCNC(=O)C(=O)Nc1cc2c3c(c1)CCN3C(=O)CC2 — 16-fold higher, 49.4 µg/mL (≈ 149 µM)
- CC(C)c1nc(C#N)c(NN)o1 — higher, > 24.9 µg/mL
- COc1ccccc1C(=O)NCCOc1ccc(C)c(C)c1 — 14-fold higher, 43 µg/mL (≈ 144 µM)
- CC[C@H](C)[C@H](NC(N)=O)C(=O)NCCc1ccc(OC)c(OC)c1 — higher, > 50.6 µg/mL
- CCN(CC)CC(=O)Nc1scc2c1c(=O)oc1ccccc12 — lower, < 0.4 µg/mL
- Cc1cccc(/N=C/c2ccccn2)n1 — 8.9-fold higher, 27.5 µg/mL (≈ 139 µM)
- Cc1ccc(-c2nc(NCCCO)c3ccccc3n2)cc1 — 12-fold higher, 37.3 µg/mL (≈ 127 µM)
- N#CC(=C=[N-])c1nc2ccccc2nc1-[n+]1ccccc1 — 2.4-fold higher, 7.3 µg/mL (≈ 26.9 µM)
- COc1ccccc1NC(=O)NNC(=O)CCN1CCOCC1 — higher, > 48.4 µg/mL
